Assay results published in ChEMBL document CHEMBL4138154, “Conformationally rigid derivatives of WAY-267,464: Synthesis and pharmacology at the human oxytocin and vasopressin-1a receptors” (Eur J Med Chem, 2018).

Columns and labels:
Vasopressin V1a receptor [1] = target: T1, Vasopressin V1a receptor (Homo sapiens, UniProt P37288); assay: Displacement of [3H]-vasopressin from human vasopressin V1a receptor expressed in HEK293 cell membranes after 90 mins by radioligand binding assay
Vasopressin V1a receptor [2] = target: T1, Vasopressin V1a receptor; assay: Antagonist activity at human vasopressin V1a receptor expressed in HEK293 cells assessed as inhibition of vasopressin-induced IP1 accumulation preincubated for 30 mins followed by vasopressin addition measured after 1 hr by HTRF assay; type: functional, cell-based
Oxytocin receptor [3] = target: T2, Oxytocin receptor (Homo sapiens, UniProt P30559); assay: Displacement of [3H]-oxytocin from human OTR expressed in HEK293 cell membranes after 90 mins by radioligand binding assay
T2 sequence (P30559 whole entry): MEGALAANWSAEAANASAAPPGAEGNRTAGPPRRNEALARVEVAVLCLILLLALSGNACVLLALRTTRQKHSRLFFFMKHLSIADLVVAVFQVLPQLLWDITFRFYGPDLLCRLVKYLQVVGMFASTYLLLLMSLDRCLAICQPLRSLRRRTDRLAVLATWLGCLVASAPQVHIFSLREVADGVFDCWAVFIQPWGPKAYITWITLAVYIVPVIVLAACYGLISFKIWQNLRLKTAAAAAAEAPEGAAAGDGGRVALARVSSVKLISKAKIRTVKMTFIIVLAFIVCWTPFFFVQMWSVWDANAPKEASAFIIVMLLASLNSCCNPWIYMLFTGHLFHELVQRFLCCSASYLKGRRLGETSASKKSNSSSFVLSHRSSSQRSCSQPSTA

Oxytocin receptor [4] = target: T2, Oxytocin receptor; assay: Agonist activity at human OTR expressed in HEK293 cells assessed as induction of IP1 accumulation after 1 hr by HTRF assay; type: functional, cell-based
Vasopressin V1a receptor [5] = target: T1, Vasopressin V1a receptor; assay: Agonist activity at human vasopressin V1a receptor expressed in HEK293 cells assessed as induction of IP1 accumulation after 1 hr by HTRF assay; type: functional, cell-based
Oxytocin receptor [6] = target: T2, Oxytocin receptor; assay: Antagonist activity at human OTR expressed in HEK293 cells assessed as inhibition of agonist-induced IP1 accumulation preincubated for 30 mins followed by agonist addition measured after 1 hr by HTRF assay; type: functional, cell-based

T1 sequence (P37288 whole entry): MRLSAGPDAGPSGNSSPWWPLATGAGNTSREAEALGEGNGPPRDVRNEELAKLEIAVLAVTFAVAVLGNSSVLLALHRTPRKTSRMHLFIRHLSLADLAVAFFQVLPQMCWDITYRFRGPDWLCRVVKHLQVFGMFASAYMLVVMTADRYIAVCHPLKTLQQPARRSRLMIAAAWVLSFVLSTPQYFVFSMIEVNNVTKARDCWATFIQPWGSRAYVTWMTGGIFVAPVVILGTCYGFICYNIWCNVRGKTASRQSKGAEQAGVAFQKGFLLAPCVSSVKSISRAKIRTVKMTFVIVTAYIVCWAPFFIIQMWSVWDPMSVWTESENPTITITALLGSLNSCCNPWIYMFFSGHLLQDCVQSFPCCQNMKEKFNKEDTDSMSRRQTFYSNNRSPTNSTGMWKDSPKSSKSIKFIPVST

| Ki (Vasopressin V1a receptor [1]) [nM] | IC50 (Vasopressin V1a receptor [2]) [µM] | Ki (Oxytocin receptor [3]) [µM] | EC50 (Oxytocin receptor [4]) [µM] | EC50 (Vasopressin V1a receptor [5]) [µM] | IC50 (Oxytocin receptor [6]) [µM] | Compound |
| --- | --- | --- | --- | --- | --- | --- |
| 1060 | > 10 | > 10 | > 10 | > 10 | > 10 | COc1cc(CN2CCN(c3ccccc3CCC(=O)N3Cc4cnn(C)c4Nc4ccccc43)CC2)cc(OC)c1 |
| 3340 | > 10 | > 10 | > 10 | > 10 | > 10 | COc1cc(CN2CCN(c3cccc(CCC(=O)N4Cc5cnn(C)c5Nc5ccccc54)c3)CC2)cc(OC)c1 |
| 643 | > 10 | > 10 | > 10 | > 10 | > 10 | Cn1ncc2c1Nc1ccccc1N(C(=O)Cc1cccc(N3CCN(Cc4cc(O)cc(O)c4)CC3)c1)C2 |
| 2100 | > 10 | > 10 | > 10 | > 10 | > 10 | COc1cc(CN2CCN(c3cccc(CC(=O)N4Cc5cnn(C)c5Nc5ccccc54)c3)CC2)cc(OC)c1 |
| 251 | > 10 | > 10 | > 10 | > 10 | > 10 | Cn1ncc2c1Nc1ccccc1N(C(=O)CCc1ccccc1N1CCN(Cc3cc(O)cc(O)c3)CC1)C2 |
| 1760 | > 10 | > 10 | > 10 | > 10 | > 10 | Cn1ncc2c1Nc1ccccc1N(C(=O)CCc1ccc(N3CCN(Cc4cc(O)cc(O)c4)CC3)cc1)C2 |
| 6250 | > 10 | > 10 | > 10 | > 10 | > 10 | COc1cc(CN2CCN(c3ccc(CCC(=O)N4Cc5cnn(C)c5Nc5ccccc54)cc3)CC2)cc(OC)c1 |
| 1940 | > 10 | > 10 | > 10 | > 10 | > 10 | Cn1ncc2c1Nc1ccccc1N(C(=O)Cc1ccccc1N1CCN(Cc3cc(O)cc(O)c3)CC1)C2 |
| 1910 | > 10 | > 10 | > 10 | > 10 | > 10 | COc1cc(CN2CCN(c3ccc(CC(=O)N4Cc5cnn(C)c5Nc5ccccc54)cc3)CC2)cc(OC)c1 |
| 795 | > 10 | > 10 | > 10 | > 10 | > 10 | Cn1ncc2c1Nc1ccccc1N(C(=O)Cc1ccc(N3CCN(Cc4cc(O)cc(O)c4)CC3)cc1)C2 |
| 6810 | > 10 | > 10 | > 10 | > 10 | > 10 | COc1cc(CN2CCN(c3ccccc3CC(=O)N3Cc4cnn(C)c4Nc4ccccc43)CC2)cc(OC)c1 |
| 874 | > 10 | > 10 | > 10 | > 10 | > 10 | Cn1ncc2c1Nc1ccccc1N(C(=O)CCc1cccc(N3CCN(Cc4cc(O)cc(O)c4)CC3)c1)C2 |
